Like-named read-outs stand apart in the source and are kept apart here.
Tests used:
human red blood cells = assay: Hemolytic activity assay; assay type: cell-based; details: human RBCs; 4–128 mg/L tested
Experimental: Washed human red blood cells (hRBCs, Innovative Research, Novi, MI, USA) were diluted 1:100 in HEPES-NaOH buffered saline (HBS) [150 mM NaCl/5 mM HEPES-NaOH (pH 7.4)]. Samples (100 μL) were taken from the serially diluted (4 to 128 mg/L) compound 5 and mixed with 250 μL of hRBCs in 1.5 mL microcentrifuge tube. After incubation at 37 °C for 30 min, the tubes were centrifuged at 3000 rpm for 5 min. The supernatant (50 μL), thus obtained, was transferred to transparent, flat-bottom 96-well plates and absorption was measured at 405 nm (Cytation 5 imaging multimode reader, BioTek Instruments, Inc., Winooski, VT, USA). In some cases, 1% TritonX-100 or HBS buffer was used instead of the compound 5 as positive and negative controls, respectively. The percentage of hemolysis was calculated as follows: % Hemolysis = (ODtest − ODHBS)/[…] × 100%.

In vivo toxicity = details: 6-week-old C57BL/6J female mouse
VIM-2 = target: T1, VIM-2 (Escherichia coli, UniProt Q5U7L7); assay: β-lactamase inhibition assay (nitrocefin); assay type: biochemical; details: nitrocefin substrate; read-out: BLi, IC50 VIM-2
T1 construct: VIM-2 (residues 27–266); made in house; host or cells: Escherichia coli
Experimental: (§1) Recombinant AmpC, OXA-48 (residues 23–265) and VIM-2 (residues 27–266) were prepared from Escherichia coli based on previously established protocols. KPC-2 and NDM-1 are commercially available from LifeSpan Biosciences, Inc., Seattle, WA, USA (LS-G26598) and RayBiotech, Inc., Peachtree Corners, GA, USA (230-00554), respectively. For β-lactamase inhibition assay, in a 96-well plate, 70–0.1 μM (in PBS) of the synthesized compounds (1~14) (100 μL) were mixed with diluted β-lactamase stock (2% DMSO in 200 μL). In a separate 96-well plate, a substrate of AmpC, KPC-2, OXA-48, and VIM-2 (nitrocefin) and NDM-1 (imipenem) were added into each well (final concentrations of 70 μM for nitrocefin and 100 μM for imipenem). After incubation at 37 °C for 20 min, the mixture of the synthesized compounds (1~14) and β-lactamase in one plate was added to the substrate in the other plate. Enzymatic hydrolysis of the substrate was then monitored by a Cytation 5 imaging multimode reader (BioTek Instruments Inc., Winooski, VT, USA) at 486 nm and 300 nm for nitrocefin and imipenem, respectively, for 15 min. The rates of hydrolysis in the presence of the inhibitors were determined when the reaction rate plateaued. Comparison of the enzymatic hydrolysis rates in the presence and the absence of inhibitors (100%) provided the percentage of enzyme inhibition at each concentration of the synthesized compounds. The IC50 values were obtained after non-linear regression (sigmoidal dose-responses) by GraphPad Prism 5 (GraphPad Software, Boston, MA, USA).

KPC-2 = target: T2, KPC-2 (Klebsiella pneumoniae, UniProt Q9F663); assay: β-lactamase inhibition assay (nitrocefin); assay type: biochemical; details: nitrocefin substrate; read-out: BLi, IC50 KPC-2
T2 construct: purchased LifeSpan Biosciences, Inc. LS-G26598
T2 sequence (Q9F663 25-293, looked up, species assumed): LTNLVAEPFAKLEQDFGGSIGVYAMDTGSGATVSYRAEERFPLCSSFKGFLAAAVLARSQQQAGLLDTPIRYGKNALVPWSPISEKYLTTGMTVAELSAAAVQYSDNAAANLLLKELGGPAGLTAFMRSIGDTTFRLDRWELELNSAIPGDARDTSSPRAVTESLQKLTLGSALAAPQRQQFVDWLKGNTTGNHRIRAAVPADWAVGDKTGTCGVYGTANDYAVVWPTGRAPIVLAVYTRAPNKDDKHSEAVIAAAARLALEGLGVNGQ
Experimental: as §1

AmpC = assay: β-lactamase inhibition assay (nitrocefin); assay type: biochemical; details: nitrocefin substrate; read-out: BLi, IC50 AmpC
Experimental: as §1

OXA-48 = target: T3, OXA-48 (Klebsiella pneumoniae, UniProt Q6XEC0); assay: β-lactamase inhibition assay (nitrocefin); assay type: biochemical; details: nitrocefin substrate; read-out: BLi, IC50 OXA-48
T3 construct: OXA-48 (residues 23–265); made in house; host or cells: Escherichia coli
T3 sequence (Q6XEC0 23-265 limits assumed): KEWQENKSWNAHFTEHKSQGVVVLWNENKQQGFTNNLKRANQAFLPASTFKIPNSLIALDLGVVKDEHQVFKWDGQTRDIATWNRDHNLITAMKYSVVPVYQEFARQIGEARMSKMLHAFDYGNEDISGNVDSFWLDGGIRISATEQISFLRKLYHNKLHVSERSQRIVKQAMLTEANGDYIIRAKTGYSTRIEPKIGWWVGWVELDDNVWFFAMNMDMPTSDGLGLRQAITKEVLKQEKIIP
Experimental: as §1

HEK293 cells = assay: Cytotoxicity assay (WST-1); assay type: cell-based, human; details: 24 h, 0.5–128 mg/L tested
Experimental: The HEK293 cells were cultured in Dulbecco’s modified Eagle medium (DMEM) supplemented with 10% fetal bovine serum (FBS) and 1% penicillin-streptomycin solution at 37 °C with 5% CO2. The cells seeded into 96-well plates at 1.5 × 10^4 cells/well were incubated for 24 h. The compound 5 was added to the wells at concentrations ranging from 0.5 to 128 mg/L and incubated for 24 h. Then, for WST-1 assay, EZ-cytox solution (10 μL, DoGenBio, Seoul, Republic of Korea) was added to the wells and incubated for 1 h, and the absorbance was measured at 450 nm (Cytation 5 imaging multimode reader, BioTek Instruments, Inc., Winooski, VT, USA).

[1] = In vivo pharmacokinetic study; design: species or system Sprague–Dawley (SD) rats; details: rat; for Vd: iv, 5 mg/kg; for MRT last: read-out: MRT0–last; for MRT inf: read-out: MRT0–∞
Experimental: After administration of compound 5 (5 mg/kg intravenously and 10 mg/kg orally) to specific pathogen-free (SPF) male Sprague–Dawley (SD) rats (Medicilon Colony: 999M-017), samples of serum were taken at eight different time points (0.083, 0.25, 0.5, 1, 2, 4, 8, and 24 h). Analysis of the samples were performed by liquid chromatography with tandem mass spectrometry (LC-MS/MS). A standard set of parameters were calculated using non-compartmental analysis modules in FDA certified pharmacokinetic program Phoenix WinNonlin 7.0 (Pharsight, Mountain View, CA, USA).

[2] = male, Sprague-Dawley, serum, Intravenous (5 mg/kg)
[3] = male, Sprague-Dawley, serum, Oral (10 mg/kg)

Compound: CC(C)(C)CCOc1c(-c2ccc(F)c(F)c2)oc2cc(OCC(=O)O)cc(O)c2c1=O [Compound 5, 2-((2-(3,4-Difluorophenyl)-3-(3,3-dimethylbutoxy)-5-hydroxy-4-oxo-4H-chromen-7-yl)oxy)acetic Acid]
- Concentration up to which no noticeable toxic effect (hemolysis) (human red blood cells): ≥ 128000 ng/mL
- Dose up to which no toxicity was shown (In vivo toxicity): ≥ 40 mg/kg
- IC50 (VIM-2): > 100 µM
- IC50 (KPC-2): > 50 µM
- IC50 (AmpC): > 50 µM
- IC50 (OXA-48): > 100 µM
- Concentration at which cell viability was affected (HEK293 cells): greater than 64 mg/L
- Vd ([1]; male, Sprague-Dawley, serum, Intravenous (5 mg/kg), read-out: Vss): 0.65 ± 0.09 L/kg
- Vd ([1]; male, Sprague-Dawley, serum, Intravenous (5 mg/kg), read-out: Vz): 1.84 ± 0.76 L/kg
- Vd ([1]; male, Sprague-Dawley, serum, intravenous 5 mg/kg, read-out: Vss): 0.65 L/kg
- AUC(0-inf) [1, 2]: 3610 ± 590 ng·h/mL
- AUC(0-t) [1, 2]: 3600 ± 590 ng·h/mL
- C0 [1, 2]: 11100 ± 2390 ng/mL
- half-life [1, 2]: 0.92 ± 0.42 h
- clearance ([1]; male, Sprague-Dawley, serum, Intravenous (5 mg/kg), read-out: Cl (systemic clearance)): 23.6 mL/min/kg
- Cmax ([1]; male, Sprague-Dawley, serum, Intravenous (5 mg/kg), read-out: Cmax): 7510 ng/mL
- MRT last [1, 2]: 0.45 ± 0.02 h
- MRT inf [1, 2]: 0.46 ± 0.02 h
- AUC(0-inf) [1, 3]: 1280 ± 540 ng·h/mL
- AUC(0-t) [1, 3]: 1250 ± 570 ng·h/mL
- Tmax [1, 3]: 2 h
- half-life [1, 3]: 1.28 ± 0.53 h
- Cmax ([1]; male, Sprague-Dawley, serum, Oral (10 mg/kg), read-out: Cmax): 290 ± 140 ng/mL
- bioavailability ([1]; male, Sprague-Dawley, serum, Oral (10 mg/kg), read-out: F (bioavailability)): 17.3 ± 7.88%
- MRT last [1, 3]: 2.87 ± 0.25 h
- MRT inf [1, 3]: 3.13 ± 0.35 h
- Cmax ([1]; Intravenous (5 mg/kg)): 7510 ± 1340 ng/mL

Source: paper PMC11672637, “7-O-Carboxylic Acid-Substituted 3-O-Alkyl Difluoroquercetin; An Aztreonam-Potentiating Agent Against Carbapenemase-Producing Pseudomonas aeruginosa Through Simultaneous Inhibition of Metallo-β-Lactamase and Efflux Pump” (Antibiotics, 2024)
